The experiment deals with T1, NBD1 (Homo sapiens, UniProt P13569).
T1 construct: Purified recombinant NBD1 was produced using previously described methods; made in house
T1 sequence (P13569 423-646 limits assumed): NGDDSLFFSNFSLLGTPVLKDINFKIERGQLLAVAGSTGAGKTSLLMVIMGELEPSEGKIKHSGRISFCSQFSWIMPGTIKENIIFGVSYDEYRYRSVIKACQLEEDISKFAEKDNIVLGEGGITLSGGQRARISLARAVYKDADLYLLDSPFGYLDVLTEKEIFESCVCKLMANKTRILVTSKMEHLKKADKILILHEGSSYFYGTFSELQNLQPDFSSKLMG
The experiment is described as follows: Aggregation analysis using differential static light scattering (DSLS), thermal stability of NBD1 (ΔTagg). The format is binding. Particulars: ΔTagg versus DMSO control, NBD1 0.2 mg/ml. Put shortly:
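Purified recombinant NBD1 at 0.2 mg/ml in 50 mM Tris-HCl, 150 mM NaCl, 5 mM MgCl2, 2 mM ATP, 2 mM DTT, pH 7.6, 1% glycerol, with compound, heated 1° C./min to 70° C. under light-scattering monitoring. Tagg taken at curve inflection; ΔTagg is compound Tagg minus mean DMSO-control Tagg, binned A (≤5° C.), B (>5-≤10° C.), C (>10-≤25° C.).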
Take `Cn1nc2nc1-c1cc(ccn1)S(=O)(=O)c1c(F)c(F)c3[nH]ccc3c1CCS(=O)(=O)CC(C)(C)CCC[C@]2(C)c1cccc(C[C@H](O)CO)c1` [Compound 342]: the “DSLS 3D (100 μM ΔT)” value is “A (an ΔTagg value less than or equal to 5 °C is marked “A”)”.

Regarding `C[C@H](Cc1cccc([C@@]2(C)CCCC(C)(C)CS(=O)(=O)CCc3c(c(F)c(F)c4[nH]cc(F)c34)Oc3ccc(F)c(c3)-c3nc2nn3C)c1)C(=O)O` [Compound 345, (2R)-2-Methyl-3-[3-[(6R)-17,21,22,28-tetrafluoro-3,6,10,10-tetramethyl-12,12-dioxo-24-oxa-12λ6-thia-3,4,19,30-tetrazapentacyclo[23.3.1.12,5.015,23.016,20]triaconta-1(29),2(30),4,15,17,20,22,25,27-nonaen-6-yl]phenyl]propanoic Acid], the “DSLS 3D (100 μM ΔT)” value is “B (a value above 5 °C and less than or equal to 10 °C is marked “B”)”.

Regarding `C[C@@H](Cc1cccc([C@@]2(C)CCCC(C)(C)CS(=O)(=O)CCc3c(c(F)c(F)c4[nH]ccc34)S(=O)(=O)c3ccnc(c3)-c3nc2nn3C)c1)C(=O)O` [Compound 346, (2S)-3-[3-[(6R)-21,22-Difluoro-3,6,10,10-tetramethyl-12,12,24,24-tetraoxo-12λ6,24λ6-dithia-3,4,19,28,30-pentazapentacyclo[23.3.1.12,5.015,23.016,20]triaconta-1(29),2(30),4,15,17,20,22,25,27-nonaen-6-yl]phenyl]-2-methyl-propanoic Acid], the “DSLS 3D (100 μM ΔT)” value is “B (a value above 5 °C and less than or equal to 10 °C is marked “B”)”.

In the case of `C[C@@H](Cc1cccc([C@@]2(C)CCCC(C)(C)CS(=O)(=O)CCc3c(c(F)cc4[nH]ccc34)S(=O)(=O)c3ccnc(c3)-c3nc2nn3C)c1)C(=O)O` [Compound 347, (2S)-3-[3-[(6R)-22-Fluoro-3,6,10,10-tetramethyl-12,12,24,24-tetraoxo-12λ6,24λ6-dithia-3,4,19,28,30-pentazapentacyclo[23.3.1.12,5.015,23.016,20]triaconta-1(29),2(30),4,15,17,20,22,25,27-nonaen-6-yl]phenyl]-2-methyl-propanoic Acid], the “DSLS 3D (100 μM ΔT)” value is “B (a value above 5 °C and less than or equal to 10 °C is marked “B”)”.

Regarding `Cn1nc2nc1-c1cc(ccc1F)S(=O)(=O)c1c(F)cc3[nH]ccc3c1CCS(=O)(=O)CC(C)(C)CCC[C@]2(C)c1cccc(CC(C)(C)C(=O)O)c1` [Compound 348A, 3-[3-[(6R)-22,28-Difluoro-3,6,10,10-tetramethyl-12,12,24,24-tetraoxo-12λ6,24λ6-dithia-3,4,19,30-tetrazapentacyclo[23.3.1.12,5.015,23.016,20]triaconta-1(29),2(30),4,15,17,20,22,25,27-nonaen-6-yl]phenyl]-2,2-dimethyl-propanoic Acid], the “DSLS 3D (100 μM ΔT)” value is “A (an ΔTagg value less than or equal to 5 °C is marked “A”)”.

For the compound `Cn1nc2nc1-c1cc(ccc1F)S(=O)(=O)c1c(F)cc3[nH]cc(Cl)c3c1CCS(=O)(=O)CC(C)(C)CCC[C@]2(C)c1cccc(CC(C)(C)C(=O)O)c1` [Compound 348B, 3-[3-[(6R)-17-Chloro-22,28-difluoro-3,6,10,10-tetramethyl-12,12,24,24-tetraoxo-12λ6,24λ6-dithia-3,4,19,30-tetrazapentacyclo[23.3.1.12,5.015,23.016,20]triaconta-1(29),2(30),4,15,17,20,22,25,27-nonaen-6-yl]phenyl]-2,2-dimethyl-propanoic Acid], the “DSLS 3D (100 μM ΔT)” value was “A (an ΔTagg value less than or equal to 5 °C is marked “A”)”.

As for `C[C@H](Cc1cccc([C@@]2(C)CCCC(C)(C)CS(=O)(=O)CCc3c(c(F)cc4[nH]ccc34)S(=O)(=O)c3ccnc(c3)-c3nc2nn3C)c1)C(=O)O` [Compound 349, (2R)-3-[3-[(6R)-22-Fluoro-3,6,10,10-tetramethyl-12,12,24,24-tetraoxo-12λ6,24λ6-dithia-3,4,19,28,30-pentazapentacyclo[23.3.1.12,5.015,23.016,20]triaconta-1(29),2(30),4,15,17,20,22,25,27-nonaen-6-yl]phenyl]-2-methyl-propanoic Acid], the “DSLS 3D (100 μM ΔT)” value is “B (a value above 5 °C and less than or equal to 10 °C is marked “B”)”.

`Cn1nc2nc1-c1cc(ccn1)S(=O)(=O)c1c(F)cc3[nH]ccc3c1CCS(=O)(=O)CC(C)(C)CCC[C@]2(C)c1cccc(CC(C)(C)C(=O)O)c1` [Compound 350, 3-[3-[(6R)-22-Fluoro-3,6,10,10-tetramethyl-12,12,24,24-tetraoxo-12λ6,24λ6-dithia-3,4,19,28,30-pentazapentacyclo[23.3.1.12,5.015,23.016,20]triaconta-1(29),2(30),4,15,17,20,22,25,27-nonaen-6-yl]phenyl]-2,2-dimethyl-propanoic Acid]: the “DSLS 3D (100 μM ΔT)” value is “A (an ΔTagg value less than or equal to 5 °C is marked “A”)”.

Take `C[C@@H](Cc1cccc([C@@]2(C)CCCC(C)(C)CS(=O)(=O)CCc3c(c(F)c(F)c4[nH]ccc34)S(=O)(=O)c3ccc(F)c(c3)-c3nc2nn3C)c1)C(=O)O` [Compound 351, (2S)-2-Methyl-3-[3-[(6R)-21,22,28-trifluoro-3,6,10,10-tetramethyl-12,12,24,24-tetraoxo-12λ6,24λ6-dithia-3,4,19,30-tetrazapentacyclo[23.3.1.12,5.015,23.016,20]triaconta-1(29),2(30),4,15,17,20,22,25,27-nonaen-6-yl]phenyl]propanoic Acid]: the “DSLS 3D (100 μM ΔT)” value was “B (a value above 5 °C and less than or equal to 10 °C is marked “B”)”.

Regarding `Cn1nc2nc1-c1cc(ccn1)S(=O)(=O)c1c(F)c(F)c3[nH]ccc3c1CCS(=O)(=O)CC(C)(C)CCC[C@]2(C)c1cccc(CC(C)(C)C(=O)O)c1` [Compound 352, 3-[3-[(6R)-21,22-Difluoro-3,6,10,10-tetramethyl-12,12,24,24-tetraoxo-12λ6,24λ6-dithia-3,4,19,28,30-pentazapentacyclo[23.3.1.12,5.015,23.016,20]triaconta-1(29),2(30),4,15,17,20,22,25,27-nonaen-6-yl]phenyl]-2,2-dimethyl-propanoic Acid], the “DSLS 3D (100 μM ΔT)” value was “A (an ΔTagg value less than or equal to 5 °C is marked “A”)”.

`C[C@@H](Cc1cccc([C@@]2(C)CCCC(C)(C)CS(=O)(=O)CCc3c[nH]c4c(F)c(F)c(cc34)Oc3ccc(F)c(c3)-c3nc2nn3C)c1)C(=O)O` [Compound 353, (2S)-2-Methyl-3-[3-[(12R)-6,25,26-trifluoro-9,12,16,16-tetramethyl-18,18-dioxo-2-oxa-18λ6-thia-9,10,23,29-tetrazapentacyclo[19.5.2.13,7.18,11.024,28]triaconta-1(26),3,5,7(30),8(29),10,21,24,27-nonaen-12-yl]phenyl]propanoic Acid]: the “DSLS 3D (100 μM ΔT)” value is “A (an ΔTagg value less than or equal to 5 °C is marked “A”)”.

Take `COC(=O)[C@@H](C)Cc1cccc([C@@]2(C)CCCC(C)(C)CS(=O)(=O)CCc3c[nH]c4cc(F)c(cc34)Sc3ccc(F)c(c3)-c3nc2nn3C)c1` [Compound 354, Methyl (2S)-3-[3-[(12R)-6,26-difluoro-9,12,16,16-tetramethyl-18,18-dioxo-2,18λ6-dithia-9,10,23,29-tetrazapentacyclo[19.5.2.13,7.18,11.024,28]triaconta-1(26),3,5,7(30),8(29),10,21,24,27-nonaen-12-yl]phenyl]-2-methyl-propanoate]: the “DSLS 3D (100 μM ΔT)” value was “A (an ΔTagg value less than or equal to 5 °C is marked “A”)”.

The record behind these values is patent US12649750B2, “Macrocyclic compounds, compositions, and methods of using thereof” (Sionna Therapeutics Inc., priority 2022, dated 2026).
